Laboratory results: article PMC5675611, “GZD824 suppresses the growth of human B cell precursor acute lymphoblastic leukemia cells by inhibiting the SRC kinase and PI3K/AKT pathways” (Oncotarget, 2016)

Columns and labels:
[1] = system: primary pre-B ALL cells; test: Annexin V apoptosis of primary pre-B ALL cells; format: cell-based, human
Experimental: Human pre-B ALL cells were obtained from spleen (SP) of sick pre-B ALL xenograft mice. Human CD45+ pre-B ALL cells, accounting for over 95% of the total SP mononuclear cells, were subjected in vitro assay. To determine the in vitro anticancer efficacy of GZD824, the drug was applied to fresh splenic pre-B ALL cells that were directly isolated from sick pre-B ALL xenograft mice in 3 independent experiments. In addition, fresh splenic cells were analyzed 24 hours post drug treatment. At this time point about 20% of the total cells in the vehicle group are apoptotic. […] All cells were cultured at 37°C in 5% carbon dioxide and a normal level of oxygen.
(§1) For identification of apoptotic cells among NALM6, SUPB15, and primary pre-B ALL cells, the GZD824-treated cells were stained with Annexin V Apoptosis Detection Kit (88-8007, BD ebioscience, CA, USA) according to the manufacturer's instructions (Affymetrix ebioscience, CA, USA) and then subjected to flow cytometric analysis by the Accuri™ C6 (BD Biosciences, CA, USA). For the in vitro drug sensitivity test in Figure 6A, the human CD45+ cells in spleen and bone marrow from sick mice account for over 95% of the total. We enriched human CD45+ cells in PB by MACS according to the manufacturer's instruction. After the enrichment, the purity of human CD45+ cell in PB reached 95%. The percentage of apoptotic cells was demarcated as the amount of both early and late facets of apoptosis (annexin V positive), as previously described. All data were analyzed with FlowJo software (Tree Star, Inc., Ashland, USA).

[2] = system: NALM6 cells; test: Cell-cycle analysis (PI staining, flow cytometry); format: cell-based, human
Experimental: Human pre-B ALL cell lines NALM6 and SUPB15 were purchased from American Type Culture Collection (ATCC, Maryland, USA). All pre-B ALL cell lines were maintained in cell culture media and conditions as recommended by the ATCC. Cells were treated with GZD824 for 24 hours. GZD824 (3μM, 1μM, or 0.5μM) was used in the experiments unless otherwise noted. NALM6 and SUPB15 cells were maintained in RPMI-1640 medium (Gibco, New York, NY, USA) with 10% fetal bovine serum (Biochrom, Melbourne, Australia). Cell cycle analysis was performed by flow cytometry after propidium iodide (PI) staining as described. Approximately 2 × 10^6 cells were suspended in 0.5 ml of phosphate-buffered saline (PBS) and vortexed with 3 ml of 80% ethanol. Cells were fixed at 4°C for 1 hr, washed with PBS, re-suspended in PBS, and vortexed vigorously. Cells were re-suspended in 1 ml of PBS containing 50 μg/ml of DNase-free RNase A (EN0531, Thermo Fisher scientific, Waltham, USA) and 50 μg/ml of propidium iodide PI (P4170, Sigma Aldrich, St. Louis, MO, USA). Cells were stained for at least 1 hr at room temperature in the dark. Stained cells were then subjected to flow cytometric analysis by an Accuri™ C6 (BD Biosciences, CA, USA).

[3] = system: NALM6 cells; test: Annexin V apoptosis flow cytometry; format: cell-based, human
Experimental: Human pre-B ALL cell lines NALM6 and SUPB15 were purchased from American Type Culture Collection (ATCC, Maryland, USA). All pre-B ALL cell lines were maintained in cell culture media and conditions as recommended by the ATCC. Cells were treated with GZD824 for 24 hours. GZD824 (3μM, 1μM, or 0.5μM) was used in the experiments unless otherwise noted. NALM6 and SUPB15 cells were maintained in RPMI-1640 medium (Gibco, New York, NY, USA) with 10% fetal bovine serum (Biochrom, Melbourne, Australia).
as §1

[4] = system: normal human primary B cells; test: Annexin V apoptosis of normal B cells; format: cell-based; settings: 1μM, vs DMSO

Compound: Cc1ccc(C(=O)Nc2ccc(CN3CCN(C)CC3)c(C(F)(F)F)c2)cc1C#Cc1cnc2[nH]ncc2c1 [GZD824]
- percentages of apoptotic cells ([1]; all five patient samples (P#1-P#5), 1μM, vs DMSO): significantly increased
- percentages of apoptotic pre-B ALL cells derived from BM compared to those from SP and PB ([1]; cells from P#2 xenograft mice, 1μM GZD824, 24 hours in vitro): significantly lower
- apoptotic levels, GZD824 alone vs both GZD824 and IGF-1 ([1]; primary pre-B ALL cells from spleen of P#1 xenograft mouse, GZD824 1μM, IGF-1 10ng/ML): much higher apoptotic levels
- proportions of the G0/G1 fraction ([2]; NALM6, 500 nM): increased
- percentage of the G0/G1 fraction ([2]; NALM6, 3μM, 24 hours): 71.6%
- percentages of apoptotic cells ([3]; NALM6, 500 nM): did not increase
- apoptotic rate ([3]; NALM6, 1μM, 24 h): moderate
- apoptosis (Annexin V-positive cells), comparison of inhibitors ([3]; NALM6, 3μM of drug, 24 hours, Fig 5E): significantly increased apoptotic level
- cells undergoing apoptosis (AnnexinV+) ([3]; NALM6, 3μM, 24 h): 74.4%
- apoptosis in normal human primary B cells [4]: did not induce apoptosis
